The target in one assay is T1, human Ptch1 (Homo sapiens, UniProt Q13635).
T1 construct: made in house; host or cells: yeast (membrane preparation)
T1 sequence (Q13635 1-1447): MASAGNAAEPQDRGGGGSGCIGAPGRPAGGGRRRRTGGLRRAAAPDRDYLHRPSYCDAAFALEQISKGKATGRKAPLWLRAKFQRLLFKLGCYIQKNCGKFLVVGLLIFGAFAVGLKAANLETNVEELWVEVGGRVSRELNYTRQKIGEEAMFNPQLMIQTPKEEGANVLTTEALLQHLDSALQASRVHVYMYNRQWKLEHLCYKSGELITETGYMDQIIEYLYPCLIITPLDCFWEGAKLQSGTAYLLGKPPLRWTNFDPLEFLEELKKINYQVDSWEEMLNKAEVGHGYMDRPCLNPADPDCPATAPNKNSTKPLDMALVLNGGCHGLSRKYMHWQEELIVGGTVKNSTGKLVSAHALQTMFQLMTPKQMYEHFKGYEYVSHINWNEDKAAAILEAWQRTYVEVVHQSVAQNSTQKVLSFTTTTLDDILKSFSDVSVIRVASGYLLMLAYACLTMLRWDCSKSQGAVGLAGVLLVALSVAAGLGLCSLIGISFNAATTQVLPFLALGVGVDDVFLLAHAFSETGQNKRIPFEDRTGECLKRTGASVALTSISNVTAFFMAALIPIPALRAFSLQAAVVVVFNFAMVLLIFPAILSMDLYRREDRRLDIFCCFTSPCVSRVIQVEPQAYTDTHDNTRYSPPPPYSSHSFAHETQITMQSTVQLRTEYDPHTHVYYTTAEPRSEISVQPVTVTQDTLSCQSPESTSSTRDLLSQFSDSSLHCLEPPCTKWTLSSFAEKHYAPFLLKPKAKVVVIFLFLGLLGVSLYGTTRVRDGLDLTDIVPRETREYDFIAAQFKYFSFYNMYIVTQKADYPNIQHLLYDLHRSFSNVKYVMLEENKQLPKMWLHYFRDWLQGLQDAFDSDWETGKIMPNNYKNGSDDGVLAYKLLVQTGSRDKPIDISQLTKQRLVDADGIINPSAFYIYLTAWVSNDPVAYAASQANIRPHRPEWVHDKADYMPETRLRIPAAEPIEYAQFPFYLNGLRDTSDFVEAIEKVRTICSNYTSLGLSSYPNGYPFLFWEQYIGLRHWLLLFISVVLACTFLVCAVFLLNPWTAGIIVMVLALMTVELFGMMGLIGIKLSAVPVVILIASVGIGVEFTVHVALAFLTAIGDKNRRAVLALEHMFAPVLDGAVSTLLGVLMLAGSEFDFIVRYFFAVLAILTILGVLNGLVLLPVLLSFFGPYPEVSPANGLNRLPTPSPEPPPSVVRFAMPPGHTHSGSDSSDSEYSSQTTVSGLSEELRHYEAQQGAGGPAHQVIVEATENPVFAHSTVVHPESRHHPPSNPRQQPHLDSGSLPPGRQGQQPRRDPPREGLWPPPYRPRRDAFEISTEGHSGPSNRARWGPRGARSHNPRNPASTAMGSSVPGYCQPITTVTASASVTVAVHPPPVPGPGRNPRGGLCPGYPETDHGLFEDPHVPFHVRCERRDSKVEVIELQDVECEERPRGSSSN
Briefly: Microscale thermophoresis on membranes from yeast expressing human Ptch1. The assay is classed as binding. The note with it: membranes from yeast expressing hPtch1; MST; mean of 3 experiments. As for the experimental part: (§1) Microscale thermophoresis (MST) is a biophysical technique that measures the strength of the interaction between two molecules by detecting a variation in the fluorescence signal of a fluorescently labeled target as a result of an IR-laser induced temperature change. The range of the variation in the fluorescence signal correlates with the binding of a ligand to the fluorescent target.
(§2) Membranes from yeast expressing human Ptch1 or human Smoothened were incubated at 30 µg/mL with 20 nM of the fluorescent dye NT-647 2nd gen (NanoTemper Technologies, München, Germany) to label the His-tag present at the c-terminus of both proteins. […] The fluorescence within the capillary is excited and detected through the same objective. […] The MST response of fluorescent proteins within the temperature gradient is detected. After activation of the IR laser, a decrease in fluorescence is observed which corresponds to temperature-related intensity change (TRIC) triggered by the fast temperature change and thermophoretic movement of the fluorescent proteins out of the heated sample volume. […] For analysis, the change in MST signal is expressed as the change in the normalized fluorescence (Fnorm), which is defined as F1/F0. […] The sPAH Kd was determined for 3 independent experiments.

Another assay addresses T2, human Smoothened (Homo sapiens, UniProt Q99835).
T2 construct: made in house; host or cells: yeast (membrane preparation)
Briefly: Microscale thermophoresis on membranes from yeast expressing human Smoothened. The assay is classed as binding. The note with it: MST; sPAH 15 nM to 250 µM. The protocol:
as §1, §2

The subject of another assay is WM9R cells. Briefly: Wound-healing assay, WM9R cells. The assay is classed as cell-based. The note with it: 48 h after wounding, sPAH added to vemurafenib. The protocol: Once cells were confluent in 24-well plates, a wound was created using a p200 tip. Two pictures were taken at two different points of each well immediately after wounding, and 48 h after wounding. Images were taken with Leica DM IRB (5×). The width of the wound was measured using ImageJ software and reported as percentage final wound width/initial wound width.

Where “and” joins values, the source holds several entries; their conditions need not be identical. Equal entries are not always repeated.

T2 sequence (Q99835 28-787): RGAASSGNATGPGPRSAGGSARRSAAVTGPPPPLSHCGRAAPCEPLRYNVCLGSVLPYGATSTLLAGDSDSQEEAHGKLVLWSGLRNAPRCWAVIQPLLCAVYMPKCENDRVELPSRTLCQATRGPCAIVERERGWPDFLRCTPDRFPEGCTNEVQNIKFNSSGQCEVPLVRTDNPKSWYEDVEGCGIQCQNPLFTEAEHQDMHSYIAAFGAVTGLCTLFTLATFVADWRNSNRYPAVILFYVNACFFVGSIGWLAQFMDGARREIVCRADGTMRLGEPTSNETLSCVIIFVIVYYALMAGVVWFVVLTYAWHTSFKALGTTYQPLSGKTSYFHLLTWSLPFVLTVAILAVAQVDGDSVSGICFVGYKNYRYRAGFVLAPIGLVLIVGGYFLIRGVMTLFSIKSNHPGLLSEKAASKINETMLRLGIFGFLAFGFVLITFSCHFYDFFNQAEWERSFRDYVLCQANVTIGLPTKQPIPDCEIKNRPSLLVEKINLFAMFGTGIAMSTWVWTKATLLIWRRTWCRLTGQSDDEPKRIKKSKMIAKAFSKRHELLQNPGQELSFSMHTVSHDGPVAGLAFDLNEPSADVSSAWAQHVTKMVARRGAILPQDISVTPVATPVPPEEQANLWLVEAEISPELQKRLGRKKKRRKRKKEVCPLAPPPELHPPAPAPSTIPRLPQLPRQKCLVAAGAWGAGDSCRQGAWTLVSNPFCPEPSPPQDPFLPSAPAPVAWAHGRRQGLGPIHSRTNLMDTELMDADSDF

Turning to `COc1cc(C)c(CC/C(C)=C/Cc2cc(O)ccc2O)c(C)c1C` [sPAH, Panicein A hydroquinone], on human Ptch1, the Kd is ~7 µM and 7.2 µM. The “binding to membranes from yeast expressing Smoothened” value on human Smoothened is given as “does not bind”. For the same molecule, in the assay on WM9R cells, the “effect on vemurafenib efficacy against cell migration” value is listed as “the same effect was observed”.

Source of the values: PMC7352342, “Inhibition of Patched Drug Efflux Increases Vemurafenib Effectiveness against Resistant Braf^V600E Melanoma” (Cancers, 2020).
